Laboratory results as given in the CheMixHub ionic liquid set.

Assay: xn = mol fraction of the nth substance listed

CCCCCC[n+]1ccn(C)c1.F[B-](F)(F)F + CC[n+]1ccn(C)c1.F[B-](F)(F)F
101 kPa
Settings | viscosity [mPa·s]
298.15 K, x2 = 0 | 211
298.15 K, x2 = 0.4061 | 111.8
298.15 K, x2 = 0.793 | 53.76
299.15 K, x2 = 0 | 198.1
299.15 K, x2 = 0.1196 | 162.2
299.15 K, x2 = 0.1803 | 148.6
299.15 K, x2 = 0.3145 | 121.9
299.15 K, x2 = 0.4938 | 91.2
299.15 K, x2 = 0.6006 | 74.7
299.15 K, x2 = 0.793 | 51.53
299.15 K, x2 = 0.9022 | 41.62
301.15 K, x2 = 0.0545 | 155.3
301.15 K, x2 = 0.1803 | 132.9
301.15 K, x2 = 0.8516 | 42.79
301.15 K, x2 = 0.9022 | 38.54
302.15 K, x2 = 0 | 167.2
302.15 K, x2 = 0.1196 | 137.4
302.15 K, x2 = 0.8516 | 41.13
302.15 K, x2 = 0.9022 | 37.08
303.15 K, x2 = 0.5526 | 68.4
303.15 K, x2 = 0.6006 | 62.29
303.15 K, x2 = 0.7059 | 51.99
303.15 K, x2 = 0.793 | 43.73
304.15 K, x2 = 0.7059 | 49.86
304.15 K, x2 = 0.9022 | 34.46
305.15 K, x2 = 0.3145 | 89.6
305.15 K, x2 = 0.4938 | 68.4
305.15 K, x2 = 0.6006 | 57.12
305.15 K, x2 = 0.793 | 40.44
305.15 K, x2 = 0.9022 | 33.23
307.15 K, x2 = 0.793 | 37.44
307.15 K, x2 = 0.9022 | 30.96
308.15 K, x2 = 0.3145 | 77.6
308.15 K, x2 = 0.4938 | 59.86
308.15 K, x2 = 0.6006 | 50.38
308.15 K, x2 = 0.793 | 36.05
308.15 K, x2 = 0.9022 | 29.94

C[S+](C)C.O=S(=O)([N-]S(=O)(=O)C(F)(F)F)C(F)(F)F + CC1COC(=O)O1
101 kPa
Settings | electrical conductivity [S/m]
283.15 K, x2 = 0.76 | 0.862
298.15 K, x1 = 0.0005 | 0.035
298.15 K, x1 = 0.0008 | 0.044
298.15 K, x2 = 0.6202 | 1.29
333.15 K, x2 = 0.76 | 2.54

COP(=O)([O-])OC.Cn1cc[n+](C)c1 + CCO
Settings | viscosity [mPa·s]
293.15 K, 100 kPa, x1 = 0.1005 | 3.24
293.15 K, 100 kPa, x1 = 0.797 | 160.9
293.15 K, 101 kPa, x2 = 0.5028 | 37.73
293.15 K, 101 kPa, x2 = 0.6 | 24.37
293.15 K, 101 kPa, x2 = 0.7999 | 6.29
293.15 K, 101 kPa, x2 = 0.9 | 3.118
298.15 K, 100 kPa, x1 = 0.7009 | 84.1
298.15 K, 100 kPa, x1 = 0.8995 | 169.2
298.15 K, 101 kPa, x1 = 0.2011 | 5.8
298.15 K, 101 kPa, x1 = 0.5056 | 36.2
298.15 K, 101 kPa, x1 = 0.8017 | 132.7
298.15 K, 101 kPa, x2 = 0.4074 | 60.9
298.15 K, 101 kPa, x2 = 0.6 | 21.18
303.15 K, 100 kPa, x1 = 0.1005 | 2.62
303.15 K, 100 kPa, x1 = 0.2006 | 5.25
303.15 K, 100 kPa, x1 = 0.3005 | 9.92
303.15 K, 101 kPa, x2 = 0.0999 | 173.7
303.15 K, 101 kPa, x2 = 0.7999 | 5.01
308.15 K, 100 kPa, x1 = 0.8995 | 94.2
308.15 K, 100 kPa, x1 = 1 | 123.3
308.15 K, 101 kPa, x2 = 0.5028 | 21.92
308.15 K, 101 kPa, x2 = 0.6992 | 9.29
313.15 K, 100 kPa, x1 = 0.4031 | 12.72
313.15 K, 100 kPa, x1 = 0.797 | 54.3
313.15 K, 101 kPa, x1 = 0.2011 | 4.2
313.15 K, 101 kPa, x1 = 0.5056 | 21.2
313.15 K, 101 kPa, x1 = 0.8017 | 60.8
318.15 K, 100 kPa, x1 = 0.3005 | 7.04
318.15 K, 100 kPa, x1 = 0.7009 | 33.29
318.15 K, 100 kPa, x1 = 1 | 72.2
318.15 K, 101 kPa, x2 = 0 | 92.8
318.15 K, 101 kPa, x2 = 0.7999 | 3.702
323.15 K, 100 kPa, x1 = 0.3005 | 6.41
323.15 K, 100 kPa, x1 = 0.7009 | 27.5
323.15 K, 100 kPa, x1 = 0.797 | 35.24
323.15 K, 100 kPa, x1 = 0.8995 | 45.63
323.15 K, 101 kPa, x2 = 0.0999 | 63.7
323.15 K, 101 kPa, x2 = 0.9 | 1.819
328.15 K, 100 kPa, x1 = 0.4996 | 12.51
328.15 K, 100 kPa, x1 = 0.797 | 29.03
333.15 K, 100 kPa, x1 = 0.1005 | 1.36
333.15 K, 100 kPa, x1 = 0.3005 | 5.46
333.15 K, 100 kPa, x1 = 0.7009 | 19.59
333.15 K, 100 kPa, x1 = 0.8995 | 30.39
333.15 K, 101 kPa, x1 = 0.2011 | 2.9
333.15 K, 101 kPa, x1 = 0.5056 | 11.9
333.15 K, 101 kPa, x1 = 0.8017 | 28
338.15 K, 100 kPa, x1 = 0.4996 | 9.9

CCCCn1cc[nH+]c1.O=S(=O)([N-]S(=O)(=O)C(F)(F)F)C(F)(F)F + N
313.2 K, 101 kPa
Settings | viscosity [mPa·s]
x1 = 0.2924 | 9.9
x1 = 0.337 | 12.9
x1 = 0.4007 | 19.3
x1 = 0.4495 | 24.3
x1 = 0.477 | 27.7
x1 = 0.4904 | 29.1
x1 = 0.575 | 38.7
x1 = 0.6515 | 45.8
x1 = 0.7028 | 51.3
x1 = 0.7906 | 54.5
x1 = 0.8999 | 52.5
x1 = 1 | 47.2
